From patent US10493164B2, “Method for preventing and treating adhesions” (Joint Stock Company “Pharmasyntez”, priority 2011, dated 2019)

System: Adhesions in the peritoneal cavity
Experiment: Adhesions in the peritoneal cavity generated in rats by caecum injury and abdominal wall scarification
Assay type: in vivo, Wistar rats
Protocol: (§1) Adhesions in the peritoneal cavity were generated in laboratory animals (Wistar rats, 9 months of age, weight of 220-250 g) by injuring the surface of caecum and abdominal wall scarification in the injured area. The study was conducted in compliance with the principles of the European Convention for the Protection of Vertebrate Animals used for Experimental and other Scientific Purposes (Strasbourg, France, 1986), as well as with regulations for humane treatment specified in Guidance for Proper Conduct of Animal Experiments (Attachment to Order No. 755 of the Ministry of Health of the USSR, dated Aug. 12, 1977).
Ten laboratory animals were used in this study. They were divided into 2 groups: the experimental group and the control group.
The calculation was based on the minimum volume of solution required to moisten the peritoneal surface (diZerega G. S. Peritoneum, peritoneal healing and adhesion formation/G. S. diZerega//in: Perotoneal surgery: Ed. G. S. diZerega.—Berlin—Heidelberg—New York: Springer, 2006.—P. 3-38), and the concentration was calculated on the basis of IC50 in the boundary layer of cells. The control animals received a corresponding amount of normal saline solution.
On Day 28 after the abdominal cavity being injured, all animals were autopsied for the examination of abdominal cavity organs and the assessment of the severity and incidence of adhesions, deformation of abdominal cavity organs and distribution of different types of adhesions. The severity of adhesions was scored according to micro- and macroscopic adhesion scales [Micronized purified flavonoid fraction may prevent formation of intraperitoneal adhesions in rats//H. G. Yilmaz, I. H. Tacyildiz, C. Keles et al.//Fertil. Steril.—2005.—Vol. 84, Suppl. 2.—P 1083-1087].
The visceral peritoneum and abdominal organs involved in adhesion formation were examined histologically after fixation in FineFIX solution (Milestone), paraffin filling, staining with hematoxylin-eosin and van Gieson's staining.
as §1, with “surface of the caecum and” for “surface of caecum and”
Thirty laboratory animals were used in this study. They were divided into 2 groups: the experimental group and the control group. […]

Row | Compound | signs of adhesions in histological section of intestinal wall (van Gieson's staining) (Example 6, FIG. 4, 30 days after modelling) | signs of adhesions in histological section of intestinal wall (van Gieson's staining) (Example 5, FIG. 1, abdominal trauma zone and area of postoperative suture) | cases of intestinal wall adhesions (Example 5: 3 ml sterile solution 10 μg/ml injected once before celiorrhaphy, autopsy Day 28) | severity of adhesion formation (score, micro- and macroscopic adhesion scales) (Example 5: 3 ml, 10 μg/ml, once, Day 28, control scored 7, p<0.01)
1 | Conjugates of Polyvinylimidazole and 4-(4-Fluorinephenyl)-2-(4-Methylsulphinylphenyl)-5-(4-Pyridyl)-1H-Imidazole [Example 3] | No signs of adhesions | – | – | –
2 | C[S+]([O-])c1ccc(-c2nc(-c3ccc(F)cc3)c(-c3ccncc3)[nH]2)cc1 (stereo not shown) [SB203580, 4-(4-fluorophenyl)-2-(4-methylsulfinylphenyl)-5-(4-pyridyl)-1H-imidazole] | – | No signs of adhesions | No cases of intestinal wall adhesions | 2
